Assay results reported in patent publication US20220241314A1, “COMPOSITIONS AND METHODS FOR TREATMENT OF HEPATITIS B VIRUS INFECTION” (priority 2019, published 2022).
Read-outs that look alike come from different tables or passages of the source. {ppp} = triphosphate

B1: poly-U/UC PAMP: ~100 nt PAMP motif from the HCV genome comprising 5′ppp and the poly U/UC region, recognized by RIG-I; formulated in liposome (nucleic acid)
chain: GGCCAUCCUGUUUUUUUCCCUUUUUUUUUUUCUUUUUUUUUUUUUUUUUUUUUUUUUUUUUUUUUUCUCCUUUUUUUUUCCUCUUUUUUUCCUUUUCUUUCCUUU
modifications: RNA, 5' {ppp}, backbone and methylation of C not given here; formulated in liposome
notes: ~100 nt PAMP motif from the HCV genome comprising 5′ppp and the poly U/UC region, recognized by RIG-I; formulated in liposome

Legend:
IRF3 = assay: Immunoblot of IRF3 phosphorylation and IFIT1 expression; assay type: cell-based, human; conditions: HepG2-hNTCP and dHepaRG cells, 24 and 48 hours, dose-dependent
HBV cccDNA = HBV cccDNA formation in infected HepG2-hNTCP cells (Hirt extraction, Southern blot, RT-qPCR); assay type: cell-based, HBV (Genotype D); conditions: harvested 3 dpi; for level of protein free-relaxed circular (PF-RC) DNA, Southern blot / HBV cccDNA formation, Southern blot: HepG2-hNTCP, treated following HBV infection; for HBV cccDNA formation, Southern blot: versus DMSO or X-RNA controls; for IC50 / IC90: HBV 1000 Geq/cell; for IC50: read-out: IC50, decline of cccDNA relative to DMSO treated controls; for IC90: read-out: IC90, decline of cccDNA relative to DMSO treated controls
Experimental: The scheme illustrates the schedule with HBV inoculum (1000 Geq/cell) and administration of Cyclosporin A (CsA), F7, X-RNA and poly-U/UC PAMP. 2.5% DMSO was added to the medium at 1 day post infection (Dpi). cccDNA and PF RC DNA were harvested from HepG2-hNTCP cells using Hirt extraction method and analyzed by Southern blot analysis using an HBV-specific DNA probe. Viral protein-free DNAs (protein-free Relaxed Circular DNA [PF-RC DNA] and cccDNA) are noted. (2B and 2C) HepG2-hNTCP 2(B) or differentiated HepaRG cells (2C) were infected with HBV at moi of 1000 Geq/cell, and administered CsA (10 μM) or F7, in the indicated concentrations. For upper panels of (2B) and (2C), DNAs were isolated after Hirt extraction at 3 dpi and subjected to Southern blot analysis using as HBV-DNA probe. […] (2D and 2E) HepG2-hNTCP (2D) or dHepaRG cells (2E) were infected with HBV at an moi of 1000 Geq/cell, and administered CsA (10 μM), X-RNA (100 ng/ml), or poly-U/UC PAMP in the indicated concentrations. For upper panels of (2D) and (2E), DNAs were analyzed using Southern blot analysis. For lower panels of (2D) and (2E), DNAs were analyzed by RT-qPCR. IC90, and IC50 values were calculated based on the decline of the cccDNA relative to DMSO treated controls. IC90, and IC50 values are the average of three experiments±one standard deviation. […] Positions of mass markers are indicated on each Southern blot.
To determine how IRF3 activation impacts HBV infection and production of cccDNA in infected cells, HepG2-hNTCP cells were treated with F7 or poly-U/UC PAMP (100 ng/ml [=2.94 nM] or 200 ng/ml [=5.87 nM]) following HBV infection. Cyclosporin A (CsA) treatment was employed as an HBV entry inhibitor antiviral control (Watashi, K., et al. (2014). Cyclosporin A and its analogs inhibit hepatitis B virus entry into cultured hepatocytes through targeting a membrane transporter, sodium taurocholate cotransporting polypeptide (NTCP). Hepatology (Baltimore, Md.) 59, 1726-1737). Cells were harvested 3 days post-infection (dpi) and extracts were prepared using Hirt extraction methods for isolating protein-free DNA, as shown in FIG. 2A (Guo, H., et al. (2007). Characterization of the Intracellular Deproteinized Relaxed Circular DNA of Hepatitis B Virus: an Intermediate of Covalendy Closed Circular DNA Formation. Journal of Virology 81, 12472-12484 Hirt, B. (1967). Selective extraction of polyoma DNA from infected mouse cell cultures. Journal of molecular biology 26, 365-369).
HBV infection HBV (Genotype D) was purified from the supernatant of HepAD38 cells by PEG concentration and subsequent sucrose gradient, as described previously (Ko, C., et al. (2014). DDX3 DEAD-Box RNA Helicase Is a Host Factor That Restricts Hepatitis B Virus Replication at the Transcriptional Level. Journal of Virology 88, 13689-13698; Watashi, K., et al. (2013), supra). For HBV infection cells were seeded into collagen-coated plates. One day later, the cells were infected with HBV in DMEM containing 4% polyethylene glycol 8000 (PEG-8000). The multiplicities of infection (expressed as virus genome equivalent/cell) are indicated in each Figure Legend. The inocula were removed 24 hours later, and the infected cultures were maintained in complete DMEM containing 2.5% DMSO until harvesting, as described previously (Ni, Y., et al. (2014). Hepatitis B and D viruses exploit sodium taurocholate co-transporting polypeptide for species-specific entry into hepatocytes. Gastroenterology 146, 1070-1083).
Reverse transcription quantitative real time qPCR (RT-qPCR) analysis: Total cellular RNAs were extracted from cells using TRIZOL reagent and the manufacturers protocol (Invitrogen). cDNA was synthesized from the purified RNA by both random and oligo (dT) priming using iScript select cDNA synthesis kit (Biorad, Inc.). For HBV cccDNA expression analysis, total DNA was extracted using the DNeasy kit (QIAGEN).

[1] = Hepatitis B virus, HepG2-hNTCP cells

Row | Molecule | IRF3 phosphorylation and IFIT1 expression (IRF3) | level of protein free-relaxed circular (PF-RC) DNA, Southern blot (HBV cccDNA) | HBV cccDNA formation, Southern blot (HBV cccDNA) | IC50 (HBV cccDNA; [1]) | IC90 (HBV cccDNA; [1]) | IC50 (HBV cccDNA; HepG2-NTCP cells) | IC90 (HBV cccDNA; HepG2-NTCP cells)
1 | O=C(Nc1ccc2nc(NC(=O)c3ccc4ccccc4c3)sc2c1)c1ccccc1 [F7, N-(6-benzamido-1,3-benzothiazol-2-yl)naphthalene-2-carboxamide] | specifically induced IRF3 phosphorylation and the expression of IFIT1 | markedly decreased | suppressed HBV cccDNA formation | ~8.48 µM | ~17.4 µM | – | –
2 | B1 | specifically induced IRF3 phosphorylation and the expression of IFIT1 | markedly decreased | suppressed HBV cccDNA formation | – | – | ~0.00194 µM | ~0.012 µM
